# Experimental data published in publication PMC3195688, “Glucose-6-Phosphate Dehydrogenase Regulation in Anoxia Tolerance of the Freshwater Crayfish Orconectes virilis” (Enzyme Research, 2011).
# Like-named read-outs stand apart in the source and are kept apart here.
# Test system: T1, Glucose-6-phosphate dehydrogenase (G6PDH)
# T1 construct: gene G6PD; native enzyme in crude hepatopancreas extract of aerobic control animals, not purified; mixture of low- and high-phosphate forms
# Assay: NADPH production at […] nm, microplate reader
# Type: biochemical, Faxonius virilis
# Conditions: untreated extract of aerobic control animals, 50 mM imidazole, pH 7.0, 22 °C, read-out: Control K m
Km (NADP+ constant) [µM],Km (G6P constant) [µM],SMILES
130 ± 16,,O=P(O)(O)OC[C@H]1OC(O)[C@H](O)[C@@H](O)[C@@H]1O (some centres unmarked) [G6P]
,150 ± 8,NC(=O)c1ccc[n+]([C@@H]2O[C@H](COP(=O)(O)OP(=O)(O)OC[C@H]3O[C@@H](n4cnc5c(N)ncnc54)[C@H](OP(=O)(O)O)[C@@H]3O)[C@@H](O)[C@H]2O)c1 [NADP^+]
